Assay: Test Example 1: impact of tension on hair straightening
Settings: then shampooed
Description: Three samples A-C of frizzy hair (bundles of 2 g Indian frizz hair, untreated, obtained from IHIP, International Hair Importers & Products, NY; see FIG. 1A) were shampooed, rinsed off with water and dried at ambient temperature. Then, an aqueous solution of 10 wt. % glyoxylic acid (pH 1.5, adjusted with NaOH) was applied to the samples A-C at a ratio of hair to solution of 1:1, uniformly distributed with a comb and left on the hair for 15 minutes at 40° C. Then, the samples were dried with a hair drier at a temperature of 90-100° C. for 10 minutes. The temperature was measured by holding an infrared thermometer at a distance of about 20 to 40 cm from the hair and scanning the area where the air stream comes into contact with the hair. The average of at least ten readings is then taken as the temperature. Samples A and B (Reference) were dried in the absence of mechanical tension and serve as reference samples. To sample C, mechanical tension was applied by fixing one end and holding the sample in an elongated state using a round brush. Reference sample B was subsequently treated with a straightening iron at a temperature of 230° C. The samples A-C were rinsed off with water, shampooed, combed and dried at ambient temperature.

With O=CC(=O)O [glyoxylic acid] the “straightening of hair after treatment” value (sample A (reference): 10 wt. % aqueous solution pH 1.5, dried with hair drier 90-100° C. in relaxed state, no mechanical tension) was “does not lead to a substantial straightening”, the “straightening of hair after treatment” value (sample B (reference): 10 wt. % aqueous solution pH 1.5, dried without tension, then straightening iron at 230° C.) was “straightening of the hair” and the “appearance of hair after treatment (straightening, frizz)” value (sample C: 10 wt. % aqueous solution pH 1.5, 15 min at 40° C., dried with hair drier 90-100° C. for 10 min under mechanical tension (round brush), no iron, versus sample A) was “remarkable straightened appearance and reduced frizz”.
